Data on 3 compounds can be found in publication PMC13242511, “Disrupting Notch signalling by a small molecule inhibiting dihydroorotate dehydrogenase activity” (Scientific Reports, 2026).

What all share (type): cell-based
Assay [1] concerns MDA-MB-468 cells. Briefly: Growth inhibition, metabolic activity (CellTiter-Glo). The following applies: Homo sapiens; MDA-MB-468, six days; read-out: approximated IC50, metabolic activity. The source says: (§1) We next investigated whether compounds A-E affected growth and viability of cell lines from T-cell acute lymphoblastic leukaemia (T-ALL) and breast cancer, two tumour types in which elevated Notch signalling has been implicated in tumorigenesis. […] When testing analogues of compounds B and C, five of the seven B analogues and one of the two C analogues produced dose–response curves and IC50s, which however were higher compared to the original hits (Supplemental Fig. 5A; IC50s are presented in Supplemental Table 6).
(§2) Compounds were spotted on white 384-well tissue culture plates (Greiner, cat #781080) using an Echo 525 Acoustic liquid handler (Labcyte). Cells were grown to 80% confluence, detached if required, counted and 20 µl containing 2000–4000 cells per well was then seeded in each well and cultivated for three (4,000 cells seeded) and six days (2,000 cells seeded). […] Luciferase activity (reading out metabolic activity) was determined using the CellTiter-Glo 2.0 kit (CTG, Promega, cat #G9242) following the manufacturer’s instructions and luminescence was measured on a SpectraMaxi3 or Varioscan plate reader (Molecular Devices, Thermofisher).
(In general: In ATP-based viability assays light output follows the ATP content of the culture.)

Assay [2] relates to Notch signalling. Briefly: DHODH inhibitor and uridine rescue experiment (Notch reporter assay). The settings on record: 1 and 10 µM, 24 h. As for the experimental part:
HEK293T Notch reporter cells (#A1-11) were grown to 80% confluency, detached and mixed with the indicated compounds and doses with or without uridine (Sigma-Aldrich, cat #U3003). 10,000 cells/well were then seeded into 96-well cell culture plates (ThermoFisher, cat #136102) and incubated for 24 h. DMSO treatment with or without uridine served as control for each treatment. Cells were then subjected to Notch reporter assays, and luciferase signals were recorded on a Varioscan Lux microplate reader (ThermoFisher). Reporter signals from each treatment were normalised to the respective DMSO control, as described above and three independent assays were recorded with at least two technical replicates per treatment.
For orientation: A reporter such as luciferase makes a cellular process visible.

Assay [3] has as its system NOTCH1. As to the kind of experiment: Cell surface biotinylation experiment. The following applies: MDA-MB-231, 2 µM, 24 h; Fig. 8B. The protocol: For labelling of membrane proteins, MDA-MB-231 cells were grown to 80% confluency in 6-well cell culture dishes (ThermoFisher, cat #104675) and treated with 2 µM of the indicated compounds for 24 h. Plates were then put on ice for 10 min to slow down cellular metabolism and halt internalisation of membrane proteins. Next, 0.5 mg/ml Sulfo-NHS-Biotin (ThermoFisher, cat #21217) in PBS was added to every second well for 40 min and non-treated wells served as controls. Excess of biotin was removed by washing the plates with PBS followed by incubation with 100 mM glycin (Sigma-Aldrich, cat #G8898) in PBS on ice. Wells were washed twice with ice-cold PBS and next, 500 µl lysis buffer was added to each well (50 mM Tris–HCl pH 7.4, 150 mM NaCl, 1% Triton X-100, (Sigma-Aldrich, cat #X100), 2 mM EDTA, including protease and phosphatase inhibitors, Thermofisher, cat #78442). […] NOTCH1 TMICD western blot band intensity was quantified using Fiji (ImageJ) after background subtraction. Relative enrichment of NOTCH1 protein present at the cell surface was calculated with IP/Input ratio (IP NOTCH1/Input NOTCH1). Input and corresponding IP fraction of a treatment were separated on the same gel and bands were measured while non-saturated. Two independent biological replicates were assessed.

In assay [4] the test system is HES-1 in JURKAT cells. Briefly: Western blot analysis of HES1 protein. The following applies: 2 µM, 48 h, Fig. 8C. The protocol:
(§3) Cells were washed in ice-cold PBS and incubated for 30 min on ice with RIPA cell lysis buffer (Thermofisher, cat #89900) containing protease and phosphatase inhibitors (Thermofisher, cat #78442), scraped off and homogenized using a 25G syringe, and subsequently centrifugated for 10 min at > 13,000xg. […] After electrophoresis, gels were placed directly onto a TransBlot Turbo PVDF or nitrocellulose membrane (Bio-rad, cat #1704157 and cat #1704159) and transferred using the “HIGH MW” protocol (Bio-Rad). Subsequently, membranes were blocked for 1 h at room temperature using Clear Milk Blocking Buffer (ThermoFisher, cat #37587) supplemented with 0.1% Tween20 (Sigma-Aldrich, cat #P1379). Detection of antibody binding was performed by using Clarity Western ECL-Substrate (Bio-rad, cat #1705060S). Beta-Actin protein signals were used as a loading control. Western blot membranes were in some experiments stripped after development (indicated in the figure in each respective case) by washing the membranes twice for 10 min in PBS, followed by incubation in membranes in western blot stripping buffer (ThermoFisher, cat #21059) for 30 min at room temperature and gentle agitation. […] Protein expression levels of western blot bands were quantified using Fiji (V.2.16) with beta-Actin signals for normalisation (Supplemental Table 8). […]

Assay [5] has as its system HES1 in MDA-MB-231 cells. Briefly: Western blot analysis of HES1 protein. The settings on record: MDA-MB-231, 2 µM, 48 h; Fig. 8C. The protocol:
as §3
(In general: Immunoblotting shows a protein as a band on a membrane.)

In assay [6] the test system is BT-20 cells. As to the kind of experiment: Growth inhibition, metabolic activity (CellTiter-Glo). The settings on record: Homo sapiens; BT-20, six days; read-out: approximated IC50, metabolic activity.
Excerpt: as §1, §2

Assay [7] has as its system MDA-MB-436 cells. Described as above. The settings on record: Homo sapiens; MDA-MB-436, six days; read-out: approximated IC50, metabolic activity.
Excerpt: as §1, §2

The subject of assay [8] is TALL-1 cells. The assay is described as above. The following applies: Homo sapiens; TALL-1, six days; read-out: approximated IC50, growth (metabolic activity).
Excerpt: as §1, §2

As a reminder, the IC50 is the concentration that gives 50% inhibition. As to `COc1cccc(CNc2ccc(N3CCCCC3)cc2)c1OCc1cccs1` [compound C], the IC50 in assay [1] was 1700 nM. In assay [2] (plus 100 µM uridine), the “effect on Notch reporter activity after addition of uridine” value is “reversed”. Moreover, in assay [2] (without uridine), the “Notch reporter assay activity” value is listed as “reduced the reporter assay activity”. The NOTCH1 surface presentation result in assay [3] was “not hindered”. Further, the “level of HES-1 protein” value in assay [4] is recorded as “reduced”. In addition, in assay [5], the HES1 protein levels result was “reduction in HES1 levels”.

`Cc1ccc2[nH]c3c(c2c1)CCOC31CCN(Cc2ccccc2-c2ccccc2)CC1` [compound B]: the IC50 in assay [6] was 3200 nM; in assay [7] it was 2000 nM; in assay [1] it was 1100 nM; in assay [8], 6700 nM.

`CC(C)(C)c1ccc(Oc2ccc(N)cn2)cc1` [CB-103, reference compound]: in assay [8], the IC50 came out at 300 nM.
